In brackets after ≈: the same amount, converted by molar mass.

This note sets out measurements from ChEMBL document CHEMBL1159313, “Structure and stereochemistry of new cytotoxic clerodane diterpenoids from the bark of Casearia lucida from the Madagascar rainforest” (J Nat Prod, 2002).

Holding throughout (assay type): functional, cell-based
Test [1] concerns A2780. Nature of the test: Cytotoxicity against human A2780 cells after 48 hrs by microplate assay. Conditions: A2780, 48 h.
The nature of test [2]: Cytotoxicity against human drug-sensitive […] cells after 48 hrs by microplate assay.
The nature of test [3]: Cytotoxicity against human drug-resistant A2780DDP cells after 48 hrs by microplate assay.
The test system of test [4] is SK-BR-3. Put plainly: Cytotoxicity against human SKBR3 cells after 48 hrs by microplate assay. The following applies: SK-BR-3, 48 h.
Test [5] has as its system PC-3. Nature of the test: Cytotoxicity against human PC3 cells after 48 hrs by microplate assay. The following applies: PC-3, 48 h.
In test [6] the test system is HCT-116. Nature of the test: Cytotoxicity against human HCT116 cells after 48 hrs by microplate assay. The following applies: HCT-116, 48 h.
The subject of test [7] is LX-1. Put plainly: Cytotoxicity against human LX1 cells after 48 hrs by microplate assay. The following applies: LX-1, 48 h.
The subject of test [8] is K562. Nature of the test: Cytotoxicity against human K562 cells after 48 hrs by microplate assay. Conditions: K562, 48 h.
Test [9] concerns ABAE. Nature of the test: Cytotoxicity against ABAE cells after 48 hrs by microplate assay. Conditions: Bos taurus.
For test [10], the system named is HT-29. Put plainly: Cytotoxicity against human HT-29 cells after 48 hrs by microplate assay. Conditions: HT-29, 48 h.

For orientation: IC50 means the concentration needed to halve the response being measured. Read a low IC50 as greater potency in that assay. In the case of `C=C/C(C)=C/C[C@]1(C)[C@H]2C[C@H](OC(=O)C(C)CC)C=C3[C@H](OC(C)=O)O[C@H](OC(C)=O)[C@@]32[C@H](O)C[C@@H]1C` (relative stereo) [CASEARLUCIN A], the half-maximal inhibitory concentration (IC50) in [1] stood at 3 µg/mL (≈ 5.78 µM); in [2], 1 µg/mL (≈ 1.93 µM); in test [3] it was 2.8 µg/mL (≈ 5.4 µM); in test [4], 1.2 µg/mL (≈ 2.31 µM); in test [5], 2.5 µg/mL (≈ 4.82 µM); in test [6], 1.3 µg/mL (≈ 2.51 µM). Also, the concentration for half-maximal inhibition (IC50) turned out to be 1 µg/mL (≈ 1.93 µM) in [7], 1.1 µg/mL (≈ 2.12 µM) in test [8], 0.8 µg/mL (≈ 1.54 µM) in test [9] and 0.8 µg/mL (≈ 1.54 µM) in test [10].

Regarding `C=CC(=C)CC[C@]1(C)[C@H]2C[C@H](OC(=O)C(C)CC)C=C3[C@H](OC(C)=O)O[C@H](OC(C)=O)[C@@]32[C@H](OC(C)=O)C[C@@H]1C` (relative stereo) [CASEARLUCIN D], the concentration for half-maximal inhibition (IC50) in test [1] was found to be 2.9 µg/mL (≈ 5.17 µM); in test [2], 9.4 µg/mL (≈ 16.8 µM); in test [3] it was 4.6 µg/mL (≈ 8.2 µM); in test [4] it was 10 µg/mL (≈ 17.8 µM); in test [5], 13 µg/mL (≈ 23.2 µM); in test [6], 4.7 µg/mL (≈ 8.38 µM). The concentration for half-maximal inhibition (IC50) came to 3.9 µg/mL (≈ 6.96 µM) in test [7], 3.9 µg/mL (≈ 6.96 µM) in test [8], 4.1 µg/mL (≈ 7.31 µM) in [9] and 6.2 µg/mL (≈ 11.1 µM) in test [10].

With `C=CC(=C)CC[C@]1(C)[C@H]2C[C@H](OC(=O)C(C)CC)C=C3[C@H](OC(C)=O)O[C@H](OC(C)=O)[C@@]32[C@H](O)C[C@@H]1C` (relative stereo), the half-inhibitory concentration (IC50) in [1] stood at 2.9 µg/mL (≈ 5.59 µM); in test [2], 1.2 µg/mL (≈ 2.31 µM); in [3], 2.1 µg/mL (≈ 4.05 µM); in test [4] it was 1.4 µg/mL (≈ 2.7 µM); in test [5] it was 2.8 µg/mL (≈ 5.4 µM); in test [6] it was 1.6 µg/mL (≈ 3.08 µM). Moreover, the IC50 came to 1.1 µg/mL (≈ 2.12 µM) in [7], 1.4 µg/mL (≈ 2.7 µM) in test [8], 0.8 µg/mL (≈ 1.54 µM) in test [9] and 1 µg/mL (≈ 1.93 µM) in [10].

On to `C=C/C(C)=C/C[C@]1(C)[C@H]2C[C@H](OC(=O)C(C)CC)C=C3[C@H](OC(C)=O)O[C@H](OC(C)=O)[C@@]32[C@H](OC(C)=O)C[C@@H]1C` (relative stereo) [CASEARLUCIN C], for which the IC50 was 2.8 µg/mL (≈ 4.99 µM) in test [1]; 7.7 µg/mL (≈ 13.7 µM) in [2]; 9.6 µg/mL (≈ 17.1 µM) in test [3]; 14 µg/mL (≈ 25 µM) in [4]; 15 µg/mL (≈ 26.8 µM) in test [5]; 4.5 µg/mL (≈ 8.03 µM) in [6]. The half-maximal inhibitory concentration (IC50) amounted to 5 µg/mL (≈ 8.92 µM) in [7], 3.8 µg/mL (≈ 6.78 µM) in [8], 3.6 µg/mL (≈ 6.42 µM) in test [9] and 12 µg/mL (≈ 21.4 µM) in test [10].

Consider `C=CC(=C)CC[C@]1(C)[C@H]2C[C@H](OC(=O)C(C)CC)C=C3[C@H](OC(C)=O)O[C@H](OC(C)=O)[C@@]32[C@H](OC)C[C@@H]1C` (relative stereo), for which the 50% inhibitory concentration (IC50) in [1] was 2.9 µg/mL (≈ 5.44 µM); in test [2] it was 1.4 µg/mL (≈ 2.63 µM); in [3], 2.9 µg/mL (≈ 5.44 µM); in [4] it was 3.5 µg/mL (≈ 6.57 µM); in test [5], 3 µg/mL (≈ 5.63 µM); in [6] it was 1 µg/mL (≈ 1.88 µM). For the same compound, the IC50 in test [7] is 1.2 µg/mL (≈ 2.25 µM); in [8], 1.4 µg/mL (≈ 2.63 µM); in test [9] it was 0.8 µg/mL (≈ 1.5 µM); in [10], 1.3 µg/mL (≈ 2.44 µM).

In the case of `C=CC(=C)CC[C@]1(C)[C@H]2C[C@@H](OC(=O)C(C)CC)C=C3[C@H](OC(C)=O)O[C@H](OC(C)=O)[C@@]32[C@H](OC)C[C@@H]1C` (relative stereo) [CASEARLUCIN E], the 50% inhibitory concentration (IC50) in test [1] was 2.9 µg/mL (≈ 5.44 µM); in test [2], 3 µg/mL (≈ 5.63 µM); in test [3], 4.1 µg/mL (≈ 7.7 µM); in test [4] it was 3.9 µg/mL (≈ 7.32 µM); in [5], 4.3 µg/mL (≈ 8.07 µM); in [6], 1.8 µg/mL (≈ 3.38 µM). Moreover, the IC50 came to 1.8 µg/mL (≈ 3.38 µM) in test [7], 1.7 µg/mL (≈ 3.19 µM) in [8], 0.9 µg/mL (≈ 1.69 µM) in test [9] and 2.8 µg/mL (≈ 5.26 µM) in [10].
